Assay [1] has as its target T1, Kinesin-like protein KIF11 (Homo sapiens, UniProt P52732).
T1 sequence (P52732 whole entry): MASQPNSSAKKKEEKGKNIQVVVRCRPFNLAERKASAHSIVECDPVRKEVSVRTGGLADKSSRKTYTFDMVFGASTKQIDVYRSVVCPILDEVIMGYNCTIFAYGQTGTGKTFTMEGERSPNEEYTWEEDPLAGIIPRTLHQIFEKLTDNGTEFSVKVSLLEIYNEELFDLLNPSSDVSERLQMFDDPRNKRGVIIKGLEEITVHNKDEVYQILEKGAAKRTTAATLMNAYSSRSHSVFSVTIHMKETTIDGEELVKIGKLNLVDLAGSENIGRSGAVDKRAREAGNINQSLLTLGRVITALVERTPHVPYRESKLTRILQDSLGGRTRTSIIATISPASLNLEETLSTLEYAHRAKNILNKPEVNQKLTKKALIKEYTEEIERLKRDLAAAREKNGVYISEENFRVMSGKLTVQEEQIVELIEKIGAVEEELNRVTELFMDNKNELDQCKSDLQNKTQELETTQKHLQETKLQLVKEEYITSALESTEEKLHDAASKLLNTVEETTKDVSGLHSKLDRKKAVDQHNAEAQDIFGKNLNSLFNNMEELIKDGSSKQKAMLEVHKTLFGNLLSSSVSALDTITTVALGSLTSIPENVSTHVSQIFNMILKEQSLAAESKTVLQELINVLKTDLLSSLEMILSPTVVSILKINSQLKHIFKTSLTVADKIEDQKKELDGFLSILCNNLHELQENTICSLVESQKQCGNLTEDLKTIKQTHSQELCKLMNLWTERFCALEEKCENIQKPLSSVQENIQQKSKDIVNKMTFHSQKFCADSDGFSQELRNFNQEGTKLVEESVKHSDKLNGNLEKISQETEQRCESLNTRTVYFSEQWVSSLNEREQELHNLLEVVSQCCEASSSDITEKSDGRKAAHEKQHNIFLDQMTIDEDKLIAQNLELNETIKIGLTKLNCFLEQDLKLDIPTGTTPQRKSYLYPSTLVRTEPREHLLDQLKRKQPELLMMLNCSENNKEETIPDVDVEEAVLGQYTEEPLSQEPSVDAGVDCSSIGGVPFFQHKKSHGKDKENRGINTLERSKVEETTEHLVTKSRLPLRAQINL
As to the kind of experiment: Inhibition of kinesin ATPase activity by enzyme-linked inorganic phosphate detection assay without preincubation.

Assay [2] deals with T1, Kinesin-like protein KIF11. As to the kind of experiment: Inhibition of kinesin ATPase activity by enzyme-linked inorganic phosphate detection assay with 5 mins pre-incubation.

For `CC1(C)CCC[C@]2(C)O[C@H]3CC[C@@]4(C)[C@@H](CC[C@]5(C)[C@@H]4CC[C@]4(C)c6c(OS(=O)(=O)O)ccc(OS(=O)(=O)O)c6C[C@@H]54)[C@]3(C)CC[C@@H]12` [ADOCIASULFATE-2], the values for the IC50 in assay [1] and in assay [2] were 13.9 µM and 7.3 µM, respectively.

The record behind these values is ChEMBL document CHEMBL1145343, “Inhibition of kinesin motor proteins by adociasulfate-2” (J Med Chem, 2006).
